Patent publication US11541045B2, “Methods of treating cancer with farnesyltransferase inhibitors” (Kura Oncology, Inc., priority 2017, dated 2023)
“And” between values parts separate entries of the source, which are not always exact repeats. Identical values can stand only once. “Also recorded” adds a separate entry of the source.

How the values were obtained:
Type in all cases: in vivo, human
[1] = test system: newly diagnosed AML in elderly patients with poor risk AML; assay: CTEP-20 trial, Phase 2, tipifarnib, analysed by CXCL12 expression
Experimental: (§1) Previous clinical studies with tipifarnib were performed in newly diagnosed AML in elderly patients with poor risk AML (CTEP-20, Phase 2) or relapsed and refractory AML (INT-17, Phase 2). In these studies, patient selection was not based on genetic markers. Anecdotal evidence of tipifarnib single agent activity was reported.

[2] = test system: peripheral T-cell lymphoma (PTCL); assay: Phase II clinical study of tipifarnib in relapsed or refractory PTCL patients; set-up: key to Response: PR: partial response; SD: stable disease; PD: progressive disease
Text: A Phase II clinical study of tipifarnib can be conducted with the primary objective being to assess the antitumor activity of tipifarnib, in terms of Objective Response Rate (ORR) in subjects with relapsed or refractory advanced peripheral T-cell lymphoma (PTCL). Determination of objective tumor response can be performed by the International Workshop Criteria (IWC) and/or measurable cutaneous disease according to the modified Severity Weighted Assessment Tool (mSWAT). Secondary objectives can include accessing the effect of tipifarnib on rate of progression-free survival (PFS) at 1 year, duration of response (DOR), overall survival (OS); and safety and tolerability of tipifarnib.
This Phase II study investigates the antitumor activity in terms of ORR of tipifarnib in subjects with PTCL. Up to 18 eligible subjects with advanced PTCL are enrolled. The total number of patients can be extended to 30.
Subjects receive tipifarnib administered at a starting dose of 900 mg, orally with food, twice a day (bid) for 7 days in alternating weeks (Days 1-7 and 15-21) in 28 day cycles. At the discretion of the investigator, the dose of tipifarnib can be increased to 1200 mg bid if the subject has not experienced dose limiting toxicities at the 900 mg dose level. Subjects who develop serious adverse events (SAE) or ≥grade 2 treatment-emergent adverse events (TEAE) that are deemed related to tipifarnib and lasting ≥14 days will not undergo dose escalation. Stepwise 300 mg dose reductions to control treatment-related, treatment-emergent toxicities are also allowed.
In the absence of unmanageable toxicities, subjects can continue to receive tipifarnib treatment until disease progression. If a complete response is observed, therapy with tipifarnib can be maintained for at least 6 months beyond the start of response.
Tumor assessments are performed at screening and at least once every approximately 8 weeks for 6 months (cycles 2, 4, 6) and once every approximately 12 weeks (cycles 9, 12, 15, etc.) thereafter, until disease progression, starting at the end of Cycle 2. Additional tumor assessments can be conducted if deemed necessary by the Investigator. Subjects who discontinue tipifarnib treatment for reasons other than disease progression must continue tumor assessments until disease progression, withdrawal of subject's consent to study
The study was an eighteen patient Phase II study with a Simon two-stage design (11+7). Two responses were required after the first eleven evaluable patients in order to proceed to second stage. Enrollment is to be extended to thirty patients if five responses are seen in the first stage.
The dose of 900 mg b.i.d. for seven days in alternate week dosing was amended during the first stage to 600 mg b.i.d. for seven days in alternate week dosing.
Formalin-fixed, paraffin-embedded (FFPE) samples were obtained from all subjects for the analysis of gene expression using RNA Seq and of single nucleotide variation (SNV, including SNPs and mutations) using next generation sequencing (NGS). Thirteen samples passed quality control (QC) for expression analysis. Sixteen samples passed quality control for SNV analysis.
This example describes a Phase 2 study (ClinicalTrials.gov Identifier: NCT02464228) designed to investigate the antitumor activity of tipifarnib in 18 patients with relapsed or refractory PTCL, and certain results of the study.
Primary outcome measures: Objective Response Rate (ORR) by the International Workshop Criteria (IWC) and/or measurable cutaneous disease according to the modified Severity Weighted Assessment Tool (mSWAT). Secondary outcome measures include the effect of tipifarnib on rate of progression-free survival (PFS) at 1 year, duration of response (DOR); and safety and tolerability of tipifarnib.
Study Design: oral tipifarnib 300 mg twice daily (bid) on days 1-21 of 28-day treatment cycles. A Simon two-stage design for ORR. […]

[3] = test system: relapsed and refractory AML; assay: INT-17 trial, Phase 2, tipifarnib, analysed by CXCR4 expression; conditions: relapsed or refractory AML patients, highest quintile of CXCR4 expression
Experimental: as §1

[4] = Grade ≥3 drug-related TEAEs, % of pts

Q: For `Cn1cncc1[C@@](N)(c1ccc(Cl)cc1)c1ccc2c(c1)c(-c1cccc(Cl)c1)cc(=O)n2C` [tipifarnib], which mPFS ([1]; second CXCL12 expression tertile) is on record?
A: 89 days

Q: And the mPFS ([1]; third tertile (lowest level of CXCL12 expression))?
A: 33 days

Q: And the “median progression free survival (mPFS)” value ([1]; treatment naïve elderly, frail AML patients, highest CXCL12 expression tertile)?
A: 431 days

Q: What about the “Median overall PFS” value ([2]; 5th line, all subjects with NGS data, reference and variant CXCL12 3′ UTR) of the same compound?
A: 53 days

Q: And the “HR (PFS)” value ([2]; CXCL12/CXCR4 ratio >0.200 versus ≤0.200, P=0.004)?
A: 0.22

Q: And the anemia [2, 4]?
A: 32%

Q: And the febrile neutropenia [2, 4]?
A: 32%

Q: What about the leukopenia [2, 4] of the same compound?
A: 47%

Q: And the lymphopenia [2, 4]?
A: 16%

Q: What about the neutropenia [2, 4] of the same compound?
A: 74%

Q: And the thrombocytopenia [2, 4]?
A: 58%

Q: What about the “Safety and Tolerability” value ([2]; PTCL patients, overall statement) of the same compound?
A: consistent with known safety profile; also recorded: generally well-tolerated

Q: What about the Response ([2]; Table 1, one line per subject 1-18, PTCL patients, 900 mg b.i.d. amended to 600 mg b.i.d., seven days in alternate weeks) of the same compound?
A: PR (3×) and PD (11×) and SD (4×)

Q: And the Response ([2]; Table 2, RNA Seq Experiment#1, one cell per patient (2002, 2004, 3002, 4001, 2001, 4004))?
A: PD (3×) and SD (2×) and PR

Q: And the Response ([2]; Table 3, RNA Seq Experiment#2, one cell per patient (2005, 2006, 4005, 4006, 4007, 6003, 2007))?
A: PD (5×) and SD and PR

Q: And the “median duration of durable responses” value ([2]; cohort of PTCL patients of Example II)?
A: 11 months

Q: What about the “median time to progression” value ([2]; five patients with tumor size reductions, associated with elevated CXCL12 expression (p<0.001)) of the same compound?
A: > 6 mo

Q: What about the “HR (PFS)” value ([2]; high versus low CXCL12 expression, FIG. 13A, p=0.0015) of the same compound?
A: 0.22

Q: And the “Discontinuation for Progressive Disease” value ([2]; of 17 discontinuations)?
A: 16 n

Q: And the mPFS ([2]; patients with CXCL12 3′ UTR SNV rs2839695, N=7, first time point (FIG. 4))?
A: 48 days

Q: And the “median progression free survival (mPFS)” value ([2]; patients with CXCL12/CXCR4 ratio >0.200 (N=5))?
A: 189 days

Q: And the “median progression free survival (mPFS)” value ([2]; patients with CXCL12/CXCR4 ratio ≤0.200 (N=7))?
A: 51 days

Q: And the mPFS ([2]; patients with CXCL12 reference 3′ UTR (8 patients), FIG. 12A)?
A: 133 days

Q: What about the mPFS ([2]; patients with CXCL12 rs2839695, N=7, later timepoint (FIG. 6)) of the same compound?
A: 50 days

Q: And the mPFS ([2]; patients with CXCL12 variant 3′ UTR (8 with rs2839695 and 1 novel variant), FIG. 12B)?
A: 34 days

Q: And the mPFS ([2]; patients with no SNV in the 3′ UTR of CXCL12 (reference 3′ UTR), N=8, first time point (FIG. 4))?
A: 189 days

Q: What about the mPFS ([2]; patients with no SNV in the 3′ UTR of CXCL12, N=8, later timepoint (FIG. 6)) of the same compound?
A: 134 days

Q: What about the mPFS ([2]; subjects with high CXCL12 expression, FIG. 13A) of the same compound?
A: 190 days

Q: And the “activity in KIR3DL2-expressing PTCL” value ([2]; subjects with high KIR3DL2 expression (e.g., over 1000))?
A: no activity

Q: And the mPFS ([2]; subjects with low CXCL12 expression, FIG. 13A)?
A: 49 days

Q: What about the median survival [3] of the same compound?
A: 182 days
